# From article PMC10648541, “Design, Synthesis, and Antiproliferative Activity of Selective Histone Deacetylases 6 Inhibitors Containing a Tetrahydropyridopyrimidine Scaffold” (Molecules, 2023)
# Legend:
# [1] = test system: SF-268; test: NCI-60 antiproliferative screening, SF-268; format: cell-based; settings: Homo sapiens, SF-268 (CNS Cancer), read-out: Inhibition% values at 10 μM concentration
# Description: (§1) Then, 8f was submitted to NCI for antiproliferative evaluation against 59 different tumor cell lines. The cancer types of the NCI-60 program include leukemia, non-small cell lung cancer (NSCLC), colon cancer, CNS cancer, melanoma, ovary cancer, renal cancer, prostate cancer, and breast cancer.
# [2] = test system: HOP-92; test: NCI-60 antiproliferative screening, HOP-92; format: cell-based; settings: Homo sapiens, HOP-92 (Non-Small Cell Lung Cancer), read-out: Inhibition% values at 10 μM concentration
# Description: as §1
# [3] = test system: SW-620; test: NCI-60 antiproliferative screening, SW-620; format: cell-based; settings: Homo sapiens, SW-620 (Colon Cancer), read-out: Inhibition% values at 10 μM concentration
# Description: as §1
# [4] = test system: RPMI-8226; test: Antiproliferative assay (Alamar blue, 72 h), RPMI-8226; format: cell-based, human; settings: Homo sapiens, RPMI-8226 cells, three independent experiments, SD < 10%, read-out: Antiproliferative effect IC50, RPMI-8226
# Method: The cells were cultured in IMDM (Gibco) medium with 20% FBS (Lonsera), 100 U/mL penicillin, and 100 µg/mL streptomycin (Solarbio). All cells were maintained at 37 °C in a humidified atmosphere of 5% CO2 in air. Briefly, 100 µL cell suspension or completed medium was plated into a 96-well plate. Compounds were added and incubated for 72 h. Then, 22 µL Alamar blue solution (1 mM) was pipetted into each well of a 96-well plate, and the plate was incubated for an additional 5~6 h. The absorbance (OD) was read at 530/590 nm. Data were normalized to vehicle groups (DMSO) and represented as the means of three independent measurements with standard errors of <20%. The IC50 values were calculated using Prism 5.0.
# [5] = test system: SK-MEL-2; test: NCI-60 antiproliferative screening, SK-MEL-2; format: cell-based; settings: Homo sapiens, SK-MEL-2 (Melanoma), read-out: Inhibition% values at 10 μM concentration
# Description: as §1
# [6] = test system: SNB-75; test: NCI-60 antiproliferative screening, SNB-75; format: cell-based; settings: Homo sapiens, SNB-75 (CNS Cancer), read-out: Inhibition% values at 10 μM concentration
# Description: as §1
# [7] = test system: T-47D; test: NCI-60 antiproliferative screening, T-47D; format: cell-based; settings: Homo sapiens, T47D, T-47D (Breast Cancer), read-out: Inhibition% values at 10 μM concentration
# Description: as §1
# [8] = test system: MDA-MB-435; test: NCI-60 antiproliferative screening, MDA-MB-435; format: cell-based; settings: Homo sapiens, MDA-MB-435 (Melanoma), read-out: Inhibition% values at 10 μM concentration
# Description: as §1
# [9] = test system: CCRF-CEM; test: NCI-60 antiproliferative screening, CCRF-CEM; format: cell-based; settings: Homo sapiens, CCRF-CEM (Leukemia), read-out: Inhibition% values at 10 μM concentration
# Description: as §1
# [10] = test system: A549/ATCC; test: NCI-60 antiproliferative screening, A549/ATCC; format: cell-based; settings: Homo sapiens, A549/ATCC (Non-Small Cell Lung Cancer), read-out: Inhibition% values at 10 μM concentration
# Description: as §1
# [11] = test system: BT-549; test: NCI-60 antiproliferative screening, BT-549; format: cell-based; settings: Homo sapiens, BT-549 (Breast Cancer), read-out: Inhibition% values at 10 μM concentration
# Description: as §1
# [12] = test system: SN12C; test: NCI-60 antiproliferative screening, SN12C; format: cell-based; settings: Homo sapiens, SN12C (Renal Cancer), read-out: Inhibition% values at 10 μM concentration
# Description: as §1
# [13] = test system: OVCAR-4; test: NCI-60 antiproliferative screening, OVCAR-4; format: cell-based; settings: Homo sapiens, OVCAR-4 (Ovarian Cancer), read-out: Inhibition% values at 10 μM concentration
# Description: as §1
# [14] = test system: HOP-62; test: NCI-60 antiproliferative screening, HOP-62; format: cell-based; settings: Homo sapiens, HOP-62 (Non-Small Cell Lung Cancer), read-out: Inhibition% values at 10 μM concentration
# Description: as §1
# [15] = test system: MOLT-4; test: NCI-60 antiproliferative screening, MOLT-4; format: cell-based; settings: Homo sapiens, MOLT-4 (Leukemia), read-out: Inhibition% values at 10 μM concentration
# Description: as §1
# [16] = test system: ACHN; test: NCI-60 antiproliferative screening, ACHN; format: cell-based; settings: Homo sapiens, ACHN (Renal Cancer), read-out: Inhibition% values at 10 μM concentration
# Description: as §1
# [17] = test system: DU-145; test: NCI-60 antiproliferative screening, DU-145; format: cell-based; settings: Homo sapiens, DU-145 (Prostate Cancer), read-out: Inhibition% values at 10 μM concentration
# Description: as §1
# [18] = test system: NCI/ADR-RES; test: NCI-60 antiproliferative screening, NCI/ADR-RES; format: cell-based; settings: Homo sapiens, NCI/ADR-RES (Ovarian Cancer), read-out: Inhibition% values at 10 μM concentration
# Description: as §1
# [19] = test system: TK-10; test: NCI-60 antiproliferative screening, TK-10; format: cell-based; settings: Homo sapiens, TK-10 (Renal Cancer), read-out: Inhibition% values at 10 μM concentration
# Description: as §1
# [20] = test system: NCI-H226; test: NCI-60 antiproliferative screening, NCI-H226; format: cell-based; settings: Homo sapiens, NCI-H226 (Non-Small Cell Lung Cancer), read-out: Inhibition% values at 10 μM concentration
# Description: as §1
# [21] = test system: M14; test: NCI-60 antiproliferative screening, M14; format: cell-based; settings: Homo sapiens, M14 (Melanoma), read-out: Inhibition% values at 10 μM concentration
# Description: as §1
# [22] = test system: KM12; test: NCI-60 antiproliferative screening, KM12; format: cell-based; settings: Homo sapiens, KM12 (Colon Cancer), read-out: Inhibition% values at 10 μM concentration
# Description: as §1
# [23] = test system: SK-MEL-28; test: NCI-60 antiproliferative screening, SK-MEL-28; format: cell-based; settings: Homo sapiens, SK-MEL-28 (Melanoma), read-out: Inhibition% values at 10 μM concentration
# Description: as §1
smiles,measurement,setting,value
"COc1cccc(-c2nc3c(c(-c4cccc(OC)c4)n2)CCN(C(=O)CCCCCCC(=O)NO)C3)c1 [Compound 8f, 8-(2,4-Bis(3-methoxyphenyl)-5,8-dihydropyrido [3,4-d]pyrimidin-7(6H)-yl)-N-hydroxy-8-oxooctanamide]",inhibition at 10 µM,[1],92.2%
same,inhibition at 10 µM,[2],100%
same,inhibition at 10 µM,[3],100%
same,IC50,[4],2800 nM
same,inhibition at 10 µM,[5],100%
same,inhibition at 10 µM,[6],71%
same,inhibition at 10 µM,[7],100%
same,inhibition at 10 µM,[8],95.8%
same,inhibition at 10 µM,[9],85%
same,inhibition at 10 µM,[10],87.7%
same,inhibition at 10 µM,[11],81.9%
same,inhibition at 10 µM,[12],100%
same,inhibition at 10 µM,[13],67.1%
same,inhibition at 10 µM,[14],99.1%
same,inhibition at 10 µM,[15],87.7%
same,inhibition at 10 µM,[16],100%
same,inhibition at 10 µM,[17],89.8%
same,inhibition at 10 µM,[18],100%
same,inhibition at 10 µM,[19],100%
same,inhibition at 10 µM,[20],93.3%
same,inhibition at 10 µM,[21],90.5%
same,inhibition at 10 µM,[22],88.4%
same,inhibition at 10 µM,[23],100%
